In US9611277B2 (Janssen Pharmaceutica NV, priority 2013, dated 2017) one finds Ki data, which are given here for 20 compounds.

Read-outs that look alike come from different tables or passages of the source. Bounds are passed on as bounds.

For experiment [1], the target named is human orexin 2 receptor (Homo sapiens (Human), UniProt O43614). Put plainly: Human orexin 2 receptor radioligand binding. The conditions noted are these: read-out: hOX2 Ki. How it is done: (§1) Data are analyzed using pc-Sandy macro and graphed on Graphpad Prism 5. For analysis, each concentration point is averaged from triplicate values and the averaged values are plotted on Graphpad Prism. The IC50 was determined by applying the following equation (GraphPad Prism 5.0, SanDiego) for one site competition where X=log (concentration) and Y=specific binding. Top denotes the total [^3H]-(1-(5-(2-fluoro-phenyl)-2-methyl-thiazol-4-yl)-1-((S)-2-(5-phenyl-(1,3,4)oxadiazol-2-ylmethyl)-pyrrolidin-1-yl)-methanone) binding, bottom denotes the nonspecific [^3H]-(1-(5-(2-fluoro-phenyl)-2-methyl-thiazol-4-yl)-1-((S)-2-(5-phenyl-(1,3,4)oxadiazol-2-ylmethyl)-pyrrolidin-1-yl)-methanone) binding. Graphpad Prism calculates Ki value from IC50 and the pre-determined Kd values for [^3H]-(1-(5-(2-fluoro-phenyl)-2-methyl-thiazol-4-yl)-1-((S)-2-(5-phenyl-(1,3,4)oxadiazol-2-ylmethyl)-pyrrolidin-1-yl)-methanone) and [3H]-EMPA. The Ki for each compound is then uploaded into 3DX. Each run comprises individual compounds in triplicate. The data in Table 1 and Table 2 represent averages from between 2-20 runs
Human Orexin 2 Receptor Radioligand Binding Studies
HEK293 stably expressing human orexin 2 receptor (Genebank accession number NM_001526) were grown to confluency in DMEM (Hyclone, cat # SH30022), 10% FBS, 1× Pen/Strep, 1× NaPyruvate, 10 mM HEPES, 600 ug/ml G418 media on 150 cm^2 tissue culture plates, washed with 5 mM EDTA in PBS (HyClone Dulbecco's Phosphate Buffered Saline 1× with Calcium and Magnesium, Cat # SH30264.01, hereafter referred to simply as PBS) and scraped into 50 ml tubes. After centrifugation (2K×G, 5 min at 4° C.), the supernatant was aspirated and the pellets frozen and stored at −80° C. […] Each cell pellet from a 15 cm plate was resuspended in 10 mL, stored on ice, and homogenized for 45 sec just prior to addition to the reactions. […] The final concentration of DMSO in the reactions is equal to or less than 0.1%. Total and nonspecific binding was determined in the absence and presence of 10 μM almorexant. The total volume of each reaction is 200 μL (20 μL of diluted compounds, 80 μL of [^3H]-EMPA diluted in PBS and 100 μL of the cell suspension). […] The plates were washed 3 times by aspirating 30 ml PBS through the plates. Plates were dried in 55° C. oven for 60 min, scintillation fluid was added, and the radioactivity was counted on a Topcount (Packard).

The target in experiment [2] is rat orexin 1 receptor (Rattus norvegicus, UniProt P56718). Nature of the experiment: Rat orexin 1 receptor radioligand binding. How it is done: as §1
Rat and Human Orexin 1 Receptor Radioligand Binding Studies
After centrifugation (2K×G, 5 min at 4° C.), the supernatant was aspirated and the pellets frozen and stored at −80° C. […] Each cell pellet from a 15 cm plate was resuspended in 10 mL, stored on ice, and homogenized for 45 sec prior to addition to the reactions. […] The final concentration of DMSO in the reactions is equal to or less than 0.1%. Total and nonspecific binding was determined in the absence and presence of 10 μM almorexant. The total volume of each reaction is 200 μL (20 μL of diluted compounds, 80 μL of [^3H]-(1-(5-(2-fluoro-phenyl)-2-methyl-thiazol-4-yl)-1-((S)-2-(5-phenyl-(1,3,4)oxadiazol-2-ylmethyl)-pyrrolidin-1-yl)-methanone) diluted in PBS and 100 μL of the cell suspension). […] The plates were washed 3 times by aspirating 30 ml PBS through the plates. Plates were dried in 55° C. oven for 60 min, scintillation fluid was added, and the radioactivity was counted on a Topcount (Packard).

Where [3] appears, read: human orexin 2 receptor, averages of 2-20 runs.
Setting [4] is: rat orexin 1 receptor, averages of 2-20 runs, read-out: rOX1 Ki.

human orexin 2 receptor, sequence (O43614 whole entry): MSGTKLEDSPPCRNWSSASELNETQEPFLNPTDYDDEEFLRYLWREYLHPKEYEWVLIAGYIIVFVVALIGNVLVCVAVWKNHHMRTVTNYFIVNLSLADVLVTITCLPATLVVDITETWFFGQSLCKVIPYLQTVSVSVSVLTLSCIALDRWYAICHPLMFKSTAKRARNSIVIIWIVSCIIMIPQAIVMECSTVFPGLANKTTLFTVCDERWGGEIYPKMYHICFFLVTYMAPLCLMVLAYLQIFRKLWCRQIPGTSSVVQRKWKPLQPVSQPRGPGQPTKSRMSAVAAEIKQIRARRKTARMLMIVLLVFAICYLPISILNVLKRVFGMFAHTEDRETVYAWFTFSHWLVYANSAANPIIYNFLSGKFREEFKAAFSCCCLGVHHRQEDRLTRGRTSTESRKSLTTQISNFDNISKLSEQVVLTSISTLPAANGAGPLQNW

Turning to `O=C(c1cccc(F)c1-c1ncccn1)N1C[C@H]2CC[C@@H]1[C@@H](Nc1cnc(C(F)(F)F)cn1)C2` [Example 276, (3-fluoro-2-(pyrimidin-2-yl)phenyl)((1R,4S,6S)-6-((5-(trifluoromethyl)pyrazin-2-yl)amino)-2-azabicyclo[2.2.2]octan-2-yl)methanone], the Ki (in general, the equilibrium dissociation constant of an inhibitor or competing ligand from its target) is greater than 10000 nM in experiment [1] (setting [3]) and 2700 nM in experiment [2] (setting [4]).

Consider `O=C(c1ccccc1-n1nccn1)N1C[C@@H]2CC[C@H]1[C@H](Nc1cnc(C(F)(F)F)cn1)C2` [Example 275, (2-(2H-1,2,3-triazol-2-yl)phenyl)((1S,4R,6R)-6-((5-(trifluoromethyl)pyrazin-2-yl)amino)-2-azabicyclo[2.2.2]octan-2-yl)methanone], for which the Ki was determined as 175 nM in experiment [1] and 8 nM in experiment [2] (read-out: rOX1 Ki). In the case of `O=C(c1cccc(F)c1-n1nccn1)N1CC2CCC1C(Oc1ccc(C(F)(F)F)cn1)C2` (racemic) [Example 249, (R/S)-(3-fluoro-2-(2H-1,2,3-triazol-2-yl)phenyl)(6-((5-(trifluoromethyl)pyridin-2-yl)oxy)-2-azabicyclo[2.2.2]octan-2-yl)methanone], in experiment [1] (setting [3]), the Ki stood at 758 nM. As to `O=C(c1cccc(F)c1-c1ncccn1)N1C[C@H]2C[C@@H](Oc3ccccn3)[C@@H]1C2` [Example 104, (3-fluoro-2-(pyrimidin-2-yl)phenyl)((1S,4R,6R)-6-(pyridin-2-yloxy)-2-azabicyclo[2.2.1]heptan-2-yl)methanone], the Ki in experiment [1] (setting [3]) is 5000 nM; in experiment [2] (setting [4]), 497 nM. In the case of `O=C(c1ccccc1-n1nccn1)N1CC2CCC1C(Nc1cnc(C(F)(F)F)cn1)C2` (racemic) [Example 254, (R/S)-(2-(2H-1,2,3-triazol-2-yl)phenyl)(6-((5-(trifluoromethyl)pyrazin-2-yl)amino)-2-azabicyclo[2.2.2]octan-2-yl)methanone], the Ki was 307 nM in experiment [1] (setting [3]) and 12 nM in experiment [2]. On to `CCc1cnc(O[C@@H]2C[C@H]3C[C@@H]2N(C(=O)c2nc(C)ccc2-n2nccn2)C3)nc1` [Example 136, ((1S,4R,6R)-6-((5-ethylpyrimidin-2-yl)oxy)-2-azabicyclo[2.2.1]heptan-2-yl)(6-methyl-3-(2H-1,2,3-triazol-2-yl)pyridin-2-yl)methanone], for which the Ki in experiment [1] (setting [3]) was 4700 nM; in experiment [2] (setting [4]), 380 nM. On to `O=C(c1cccc(F)c1-n1nccn1)N1CC2CCC1C(Nc1cnc(C(F)(F)F)cn1)C2` (racemic) [Example 255, (R/S)-(3-fluoro-2-(2H-1,2,3-triazol-2-yl)phenyl)(6-((5-(trifluoromethyl)pyrazin-2-yl)amino)-2-azabicyclo[2.2.2]octan-2-yl)methanone], for which the inhibitory constant (Ki) in experiment [1] (setting [3]) came to 1000 nM. As for `Cc1nc2sccn2c1C(=O)N1CC2CC(Oc3ccc(C(F)(F)F)cn3)C1C2` (racemic) [Example 6, (R/S)-(6-methylimidazo[2,1-b]thiazol-5-yl)(6-((5-(trifluoromethyl)pyridin-2-yl)oxy)-2-azabicyclo[2.2.1]heptan-2-yl)methanone], the Ki in experiment [1] (setting [3]) and in experiment [2] (setting [4]) was greater than 10000 nM each time. As for `Cc1ccc(-n2nccn2)c(C(=O)N2C[C@H]3C[C@@H](Oc4ccc5cccnc5n4)[C@@H]2C3)n1` [Example 286, ((1S,4R,6R)-6-((1,8-naphthyridin-2-yl)oxy)-2-azabicyclo[2.2.1]heptan-2-yl)(6-methyl-3-(2H-1,2,3-triazol-2-yl)pyridin-2-yl)methanone], the Ki in experiment [1] (setting [3]) came out at 3100 nM; in experiment [2] (setting [4]), 822 nM. For `Cc1ccc(C(=O)N2C[C@H]3C[C@@H](Oc4ccccn4)[C@@H]2C3)c(-n2nccn2)n1` [Example 103, (6-methyl-2-(2H-1,2,3-triazol-2-yl)pyridin-3-yl)((1S,4R,6R)-6-(pyridin-2-yloxy)-2-azabicyclo[2.2.1]heptan-2-yl)methanone], the Ki in experiment [1] (setting [3]) and in experiment [2] (setting [4]) was greater than 10000 nM throughout. Turning to `COc1cccc(-c2ccn[nH]2)c1C(=O)N1C[C@H]2C[C@@H](Oc3ccc(C(F)(F)F)cn3)[C@@H]1C2` [Example 39, (2-methoxy-6-(1H-pyrazol-5-yl)phenyl)((1S,4R,6R)-6-((5-(trifluoromethyl)pyridin-2-yl)oxy)-2-azabicyclo[2.2.1]heptan-2-yl)methanone], the Ki in experiment [2] (setting [4]) was 72 nM. For `O=C(c1cccc(F)c1-n1nccn1)N1C[C@@H]2CC[C@H]1[C@H](Nc1cnc(C(F)(F)F)cn1)C2` [Example 274, (3-fluoro-2-(2H-1,2,3-triazol-2-yl)phenyl)((1S,4R,6R)-6-((5-(trifluoromethyl)pyrazin-2-yl)amino)-2-azabicyclo[2.2.2]octan-2-yl)methanone], the Ki in experiment [1] (setting [3]) worked out at 534 nM. As to `CCc1cnc(O[C@@H]2C[C@H]3C[C@@H]2N(C(=O)c2nc(C)ccc2-c2ncccn2)C3)nc1` [Example 138, ((1S,4R,6R)-6-((5-ethylpyrimidin-2-yl)oxy)-2-azabicyclo[2.2.1]heptan-2-yl)(6-methyl-3-(pyrimidin-2-yl)pyridin-2-yl)methanone], the Ki in experiment [1] (setting [3]) was 2700 nM; in experiment [2] (setting [4]), 300 nM. The corresponding values for `Cc1cnc(O[C@@H]2C[C@H]3C[C@@H]2N(C(=O)c2ncc(C)cc2-c2ncccn2)C3)nc1` [Example 134, (5-methyl-3-(pyrimidin-2-yl)pyridin-2-yl)((1S,4R,6R)-6-((5-methylpyrimidin-2-yl)oxy)-2-azabicyclo[2.2.1]heptan-2-yl)methanone] are greater than 10000 nM and 668 nM.

Turning to `O=C(c1cccc(F)c1-c1ncccn1)N1C[C@H]2C[C@@H](Oc3ncccc3C(F)(F)F)[C@@H]1C2` [Example 96, (3-fluoro-2-(pyrimidin-2-yl)phenyl)((1S,4R,6R)-6-((3-(trifluoromethyl)pyridin-2-yl)oxy)-2-azabicyclo[2.2.1]heptan-2-yl)methanone], the values for the Ki in experiment [1] (setting [3]) and in experiment [2] (setting [4]) were 1700 nM and 320 nM, respectively.

In the case of `CCOc1ccc(C)nc1C(=O)N1C[C@H]2C[C@@H](Nc3ncc(C(F)(F)F)cn3)[C@@H]1C2` [Example 233, (3-ethoxy-6-methylpyridin-2-yl)((1S,4S,6R)-6-((5-(trifluoromethyl)pyrimidin-2-yl)amino)-2-azabicyclo[2.2.1]heptan-2-yl)methanone], the Ki in experiment [1] (setting [3]) was determined as 1100 nM; in experiment [2] (setting [4]), 280 nM.

For the compound `O=C(c1cccnc1-n1nccn1)N1C[C@H]2C[C@@H](Nc3ncc(C(F)(F)F)cn3)[C@@H]1C2` [Example 222, (2-(2H-1,2,3-triazol-2-yl)pyridin-3-yl)((1S,4S,6R)-6-((5-(trifluoromethyl)pyrimidin-2-yl)amino)-2-azabicyclo[2.2.1]heptan-2-yl)methanone], the Ki in experiment [1] (setting [3]) is greater than 10000 nM; in experiment [2] (setting [4]), 261 nM.

As for `COc1cccc(-c2ncccn2)c1C(=O)N1C[C@H]2C[C@@H](Oc3ccc(C(F)(F)F)cn3)[C@@H]1C2` [Example 40, (2-methoxy-6-(pyrimidin-2-yl)phenyl)((1S,4R,6R)-6-((5-(trifluoromethyl)pyridin-2-yl)oxy)-2-azabicyclo[2.2.1]heptan-2-yl)methanone], in experiment [2] (setting [4]), the Ki was 15 nM.

For `COc1cccc(-n2nccn2)c1C(=O)N1C[C@H]2C[C@@H](Oc3ccc(C(F)(F)F)cn3)[C@@H]1C2` [Example 289, (2-methoxy-6-(2H-1,2,3-triazol-2-yl)phenyl)((1S,4R,6R)-6-((5-(trifluoromethyl)pyridin-2-yl)oxy)-2-azabicyclo[2.2.1]heptan-2-yl)methanone], the Ki in experiment [1] (setting [3]) was 207 nM.

Turning to `O=C(c1c(F)cccc1-c1ncccn1)N1C[C@H]2C[C@@H](Oc3ccc(C(F)(F)F)cn3)[C@@H]1C2` [Example 38, (2-fluoro-6-(pyrimidin-2-yl)phenyl)((1S,4R,6R)-6-((5-(trifluoromethyl)pyridin-2-yl)oxy)-2-azabicyclo[2.2.1]heptan-2-yl)methanone], in experiment [1] (setting [3]), the Ki worked out at 633 nM.
